Measured values: article PMC6749346, “Synthesis of Isorhamnetin-3-O-Rhamnoside by a Three-Enzyme (Rhamnosyltransferase, Glycine Max Sucrose Synthase, UDP-Rhamnose Synthase) Cascade Using a UDP-Rhamnose Regeneration System” (Molecules, 2019)

T1: rhamnosyltransferase 78D1 (Arabidopsis thaliana, UniProt Q9S9P6)
T1 construct: gene UGT78D1; codon-optimised synthetic gene in pET-28a (BamHI/EcoRI), E. coli BL21(DE3), Ni-NTA purified; theoretical monomer mass 50019 Da
T1 sequence (Q9S9P6 1-453): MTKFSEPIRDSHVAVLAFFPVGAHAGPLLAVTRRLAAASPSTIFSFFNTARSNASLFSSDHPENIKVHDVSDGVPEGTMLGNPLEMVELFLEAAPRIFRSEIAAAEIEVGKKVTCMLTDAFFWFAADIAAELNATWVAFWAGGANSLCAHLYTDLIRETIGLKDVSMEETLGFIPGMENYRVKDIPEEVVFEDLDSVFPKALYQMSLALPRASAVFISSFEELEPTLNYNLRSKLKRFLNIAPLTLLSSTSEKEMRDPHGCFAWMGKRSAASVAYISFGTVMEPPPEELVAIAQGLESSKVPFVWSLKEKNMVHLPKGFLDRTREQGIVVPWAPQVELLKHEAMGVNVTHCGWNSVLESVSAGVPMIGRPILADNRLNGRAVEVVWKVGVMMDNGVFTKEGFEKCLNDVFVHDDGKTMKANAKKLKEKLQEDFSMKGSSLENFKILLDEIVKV


How the values were obtained:
[1] = biological target: T1, rhamnosyltransferase 78D1; assay: HPLC activity assay with […] UDP, […] min pre-incubation; assay type: biochemical; details: inhibitor; UDP-rhamnose donor, 0.5 mM isorhamnetin; 50 mM phosphate pH 7.5; 35 °C
[2] = substrate: COc1cc(-c2oc3cc(O)cc(O)c3c(=O)c2O)ccc1O; assay: HPLC of isorhamnetin-3-O-rhamnoside formation, initial rates; assay type: biochemical, Arabidopsis thaliana; details: co-substrate excess UDP-rhamnose, 50 mM phosphate pH 7.5, 35 °C

| Molecule | % activity [1] | Km [2] [µM] |
| --- | --- | --- |
| O=c1ccn([C@@H]2O[C@H](COP(=O)(O)OP(=O)(O)O)[C@@H](O)[C@H]2O)c(=O)[nH]1 [UDP] | The enzyme activity was inhibited when the concentration of UDP was gradually increased |  |
| rhamnosyltransferase 78D1 (Arabidopsis thaliana) (protein, codon-optimised synthetic gene in pET-28a (BamHI/EcoRI), E. coli BL21(DE3), Ni-NTA purified; theoretical monomer mass 50019 Da) MTKFSEPIRDSHVAVLAFFPVGAHAGPLLAVTRRLAAASPSTIFSFFNTARSNASLFSSDHPENIKVHDVSDGVPEGTMLGNPLEMVELFLEAAPRIFRSEIAAAEIEVGKKVTCMLTDAFFWFAADIAAELNATWVAFWAGGANSLCAHLYTDLIRETIGLKDVSMEETLGFIPGMENYRVKDIPEEVVFEDLDSVFPKALYQMSLALPRASAVFISSFEELEPTLNYNLRSKLKRFLNIAPLTLLSSTSEKEMRDPHGCFAWMGKRSAASVAYISFGTVMEPPPEELVAIAQGLESSKVPFVWSLKEKNMVHLPKGFLDRTREQGIVVPWAPQVELLKHEAMGVNVTHCGWNSVLESVSAGVPMIGRPILADNRLNGRAVEVVWKVGVMMDNGVFTKEGFEKCLNDVFVHDDGKTMKANAKKLKEKLQEDFSMKGSSLENFKILLDEIVKV |  | 181 |
